Assay results reported in US10875855B2 (priority 2011, dated 2020).
Like-named read-outs stand apart in the source and are kept apart here.

How the values were obtained:
[1] = tested on: influenza A virus (A/PR/8/34); experiment: microbe, parasite or virus in culture; assay type: cell-based; conditions: for bDNA EC99 (uM), class / bDNA EC99: Table 2
influenza virus = experiment: Influenza therapeutic mouse model (in vivo efficacy); parameters: species or system Balb/c mice; conditions: dosing @ 48 hours post infection, 30 mg/kg BID × 10 days; for Percent Survival / Percent Weight Loss (Day 8): Balb/c mice; for Percent Survival: scored 21 days; for Percent Weight Loss (Day 8): post challenge day 8; for WBP (Penh; Day 6): whole body plethysmography, enhanced pause
[2] = tested on: influenza A virus (A/PR/8/34); experiment: MDCK cytopathic effect (CPE) cell protection assay, ATP detection; assay type: cell-based
[3] = Influenza A virus, PR/8, Table 1, mean all, class symbol, read-out: bDNA EC99
[4] = Influenza A virus, PR/8, Table 1, viral RNA 50% of control wells, mean all, class symbol, read-out: bDNA EC50
[5] = Influenza A virus, PR/8, exemplary data, bDNA, read-out: EC50
[6] = Influenza A virus, PR/8, MDCK, 72 h, Table 1, MDCK cells, A/PR/8/34, 72 hours, 50% cell protection, mean all, class symbol, read-out: MDCK IC50
[7] = Influenza A virus, PR/8, MDCK, exemplary data, MDCK cell protection, read-out: IC50
[8] = Table 1, mean all, class symbol
[9] = Table 1, viral RNA 50% of control wells, mean all, class symbol, read-out: bDNA EC50
[10] = Table 1, MDCK cells, A/PR/8/34, 72 hours, 50% cell protection, mean all, class symbol, read-out: MDCK IC50
[11] = Influenza A virus, PR/8, Table 2, class symbol in brackets, read-out: bDNA EC50 (uM), class
[12] = Influenza A virus, PR/8, Table 2, comparison compounds of WO2005/095400, mean value, read-out: bDNA EC50
[13] = comparison compounds of WO2005/095400, mean value
[14] = Influenza A virus, PR/8, MDCK, Table 2, class symbol in brackets, read-out: MDCK cell IC50 (uM), class
[15] = Influenza A virus, PR/8, MDCK, Table 2, comparison compounds of WO2005/095400, mean value, read-out: MDCK cell IC50

## CC(C)(C)[C@@H](CC(=O)O)Nc1nc(-c2c[nH]c3ncc(Cl)cc23)ncc1F [Compound 1, (R)-3-(2-(5-Chloro-1H-pyrrolo[2,3-b]pyridin-3-yl)-5-fluoropyrimidin-4-ylamino)-4,4-dimethylpentanoic acid]
[1]; [3]
  EC99: < 0.3 µM
[1]; [4]
  EC50: < 0.3 µM
[1]; [5]
  EC50: 0.009 µM
[1]; exemplary data, bDNA
  EC99: 0.0094 µM
Influenza virus
  Percent Survival: 100%
  Percent Weight Loss (Day 8): 26.6%
  WBP (Penh; Day 6): 1.88
[2]; [6]
  IC50: < 0.3 µM
[2]; [7]
  IC50: 0.006 µM

## CC(C)(C)[C@@H](CC(=O)O)Nc1nc(-c2c[nH]c3ncc(F)cc23)ncc1F [Compound 2, (R)-3-((5-fluoro-2-(5-fluoro-1H-pyrrolo[2,3-b]pyridin-3-yl)pyrimidin-4-yl)amino)-4,4-dimethylpentanoic acid]
[1]; [3]
  EC99: < 0.3 µM
[1]; [4]
  EC50: < 0.3 µM
[1]; [5]
  EC50: 0.009 µM
[1]; exemplary data, bDNA
  EC99: 0.0063 µM
Influenza virus
  Percent Survival: 100%
  Percent Weight Loss (Day 8): 14%
  WBP (Penh; Day 6): 2.03
[2]; [6]
  IC50: < 0.3 µM
[2]; [7]
  IC50: 0.004 µM

## CC1(C(CC(=O)O)Nc2nc(-c3c[nH]c4ncc(F)cc34)ncc2F)CCCCC1 (stereo not drawn) [Compound 78, 3-(5-fluoro-2-(5-fluoro-1H-pyrrolo[2,3-b]pyridin-3-yl)pyrimidin-4-ylamino)-3-(1-methylcyclohexyl)propanoic acid]
[1]; [3]
  EC99: 0.3 to 3.3 µM
[1]; [4]
  EC50: < 0.3 µM
[2]; [6]
  IC50: < 0.3 µM

## CCOC(=O)CC(Nc1nc(-c2c[nH]c3ncc(Cl)cc23)ncc1F)C1(C)CCCCC1 (stereo not drawn) [Compound 82]
[1]; [3]
  EC99: > 3.3 µM
[1]; [4]
  EC50: > 3.3 µM
[2]; [6]
  IC50: > 3.3 µM

## CC1([C@@H](CC(=O)O)Nc2nc(-c3c[nH]c4ncc(F)cc34)ncc2F)CCC1 [Compound 87, 3-((5-fluoro-2-(5-fluoro-1H-pyrrolo[2,3-b]pyridin-3-yl)pyrimidin-4-yl)amino)-3-(1-methylcyclobutyl)propanoic acid]
[1]; [3]
  EC99: < 0.3 µM
[1]; [4]
  EC50: < 0.3 µM
[2]; [6]
  IC50: < 0.3 µM

## CC1(C(CC(=O)O)Nc2nc(-c3c[nH]c4ncc(F)cc34)ncc2F)CCC1 (stereo not drawn) [Compound 88, 3-((5-fluoro-2-(5-fluoro-1H-pyrrolo[2,3-b]pyridin-3-yl)pyrimidin-4-yl)amino)-3-(1-methylcyclobutyl)propanoic acid]
[1]; [8]
  bDNA EC99 (uM): B (0.3 μM≤EC99 (mean all)≤3.3 μM)
[1]; [9]
  EC50: < 0.3 µM
[2]; [10]
  IC50: < 0.3 µM

## CC(C)(C)[C@@H](CC(=O)O)Nc1nc(-c2c[nH]c3ncc(C#N)cc23)ncc1F [Compound 89, (R)-3-((2-(5-cyano-1H-pyrrolo[2,3-b]pyridin-3-yl)-5-fluoropyrimidin-4-yl)amino)-4,4-dimethylpentanoic acid]
[1]; [3]
  EC99: 0.3 to 3.3 µM
[1]; [4]
  EC50: < 0.3 µM
[2]; [6]
  IC50: < 0.3 µM

## Cc1cnc2[nH]cc(-c3ncc(F)c(N[C@H](CC(=O)O)C(C)(C)C)n3)c2c1 [Compound 90, (R)-3-((5-fluoro-2-(5-methyl-1H-pyrrolo[2,3-b]pyridin-3-yl)pyrimidin-4-yl)amino)-4,4-dimethylpentanoic acid]
[1]; [3]
  EC99: 0.3 to 3.3 µM
[1]; [4]
  EC50: < 0.3 µM
[2]; [6]
  IC50: < 0.3 µM

## CC1([C@@H](CC(=O)O)Nc2nc(-c3c[nH]c4ncc(F)cc34)ncc2F)CC1 [Compound 91, (R)-3-((5-fluoro-2-(5-fluoro-1H-pyrrolo[2,3-b]pyridin-3-yl)pyrimidin-4-yl)amino)-3-(1-methylcyclopropyl)propanoic acid]
[1]; [4]
  EC50: < 0.3 µM
[1]; [8]
  bDNA EC99 (uM): B (0.3 μM≤EC99 (mean all)≤3.3 μM)
[2]; [6]
  IC50: < 0.3 µM

## CC1([C@@H](CC(=O)O)Nc2nc(-c3c[nH]c4ncc(F)cc34)ncc2F)CC1 [Compound 92]
[1]; [8]
  bDNA EC99 (uM): C (EC99 (mean all)>3.3 μM)
[1]; [9]
  EC50: 0.3 to 3.3 µM
[2]; [10]
  IC50: 0.3 to 3.3 µM

## COC(=O)C[C@@H](Nc1nc(-c2n[nH]c3ncc(Cl)cc23)ncc1F)C(C)(C)C [Compound 96]
[1]; [3]
  EC99: 0.3 to 3.3 µM
[1]; [4]
  EC50: < 0.3 µM
[2]; [6]
  IC50: < 0.3 µM

## CC(C)(C)[C@@H](CC(=O)O)Nc1nc(-c2n[nH]c3ncc(Cl)cc23)ncc1F [Compound 97, (R)-3-((2-(5-chloro-1H-pyrazolo[3,4-b]pyridin-3-yl)-5-fluoropyrimidin-4-yl)amino)-4,4-dimethylpentanoic acid]
[1]; [3]
  EC99: < 0.3 µM
[1]; [4]
  EC50: < 0.3 µM
[2]; [6]
  IC50: < 0.3 µM

## CNC(=O)[C@H](C)Nc1nc(-c2c[nH]c3ncc(Cl)cc23)ncc1F [Compound C3, reference compound]
[1]; [11]
  EC50: > 3.3 µM
[1]; [12]
  EC50: 3.38 µM
[1]; class symbol in brackets
  bDNA EC99 (uM), class: C (EC99 (mean all)>3.3 μM)
[1]; [13]
  bDNA EC99: 9.37 µM
[2]; [14]
  IC50: > 3.3 µM
[2]; [15]
  IC50: > 20 µM

## C[C@@H](CC(=O)O)Nc1nc(-c2c[nH]c3ncc(Cl)cc23)ncc1F [Compound C4, reference compound]
[1]; [11]
  EC50: > 3.3 µM
[1]; [12]
  EC50: 6.4 µM
[1]; class symbol in brackets
  bDNA EC99 (uM), class: C (EC99 (mean all)>3.3 μM)
[1]; [13]
  bDNA EC99: > 16.7 µM
[2]; [14]
  IC50: 0.3 to 3.3 µM
[2]; [15]
  IC50: 2.33 µM
